{
  "source": "patent US20230257366A1",
  "about": "“SULFUR-CONTAINING ISOINDOLINE DERIVATIVE, AND PREPARATION METHOD THEREFOR AND MEDICAL USE THEREOF” (JIANGSU HENGRUI PHARMACEUTICALS CO., LTD., priority 2020, published 2023)",
  "key": {"NCI-H929 xenograft tumor": {"tested_on": "NCI-H929 xenograft tumor", "assay": "Pharmacodynamic test: NCI-H929 xenograft tumor in CB-17 SCID mice", "type": "in vivo", "protocol": "This experiment was performed to evaluate the inhibition effect of the compound of Example 6 and the control example CC-92480 on the growth of human multiple myeloma cell NCI-H929 xenograft tumor in CB-17 SCID mice.\nCompound of Example 6; control example CC-92480 (see compound 2 of WO2019014100A1, synthesized according to the method disclosed therein)\nSolutions of the compound of Example 6 and the control example CC-92480 were prepared with 5% DMSO+20% PEG400+70% (10% TPGS)+5% (1% HPMC K100LV).\nThirty CB-17 SCID female mice, purchased from Beijing Vital River Laboratory Animal Technology Co., Ltd. (certificate No. 20170011006049, SCXK (Shanghai) 2017-0011), weighing about 19 g at the time of purchase, were bred at 5 mice/cage (in 12/12 hour light/dark cycle, at a constant temperature of 23±1° C. and humidity of 50%-60%) and had free access to food and water.\nAfter adaptive feeding, the CB-17 SCID mice were grouped as follows:\n(§1) NCI-H929 cells in a logarithmic growth phase were inoculated subcutaneously into the right flank of 30 female CB-17 SCID mice at 5×10^6 cells/mouse/100 μL (containing 50 μL of Matrigel). After 10 days, when the tumor volume of the tumor-bearing mice reached about 200 mm^3, the mice were randomly divided into 3 groups according to the tumor volume and body weight: vehicle control group, CC-92480-1 mpk, compound of Example 6-1 mpk, with 7 mice in each group. The day of grouping was set as Day 0 (D0), and intragastric administration was performed once a day for 11 days (Table 2). For the tumor-bearing mice, the tumor volume was measured with a vernier caliper and the body weight was measured with a balance twice a week, and the data were recorded.\nAll data were plotted and statistically analyzed using Excel and GraphPad Prism 5 software.\nThe tumor volume (V) was calculated as follows: V=½×a×b^2, where a and b represent length and width, respectively.\nThe relative tumor proliferation rate T/C (%)=(T−T0)/(C−C0)×100(%), where T and C are the tumor volume of animals at the end of the experiment in the treatment group and control group, respectively; T0 and C0 are the tumor volume of animals at the beginning of the experiment in the treatment group and control group, respectively.\nTumor growth inhibition TGI (%)=1−T/C (%), and when TGI (%) exceeds 100%, no specific value will be shown, and it is expressed only by >100%.\nTumor regression (%)=[(T0−T)/T0]×100(%)."}, "[1]": {"assay": "Plasma stability in monkey plasma (LC-MS/MS)", "type": "in vitro ADME", "settings": "cryopreserved monkey plasma; monkey plasma, 37° C., 1 μM; read-out: T1/2 (min)/monkey", "protocol": "The stability of the compound of Example 6 and the control example CC-92480 after incubation in cryopreserved monkey plasma at 37° C. for 0 min, 15 min, 30 min, 60 min, 120 min, 180 min and 240 min was determined quantitatively by LC-MS/MS.\nCompound of Example 6 and control example CC-92480.\nMonkey plasma was purchased from Shanghai Medicilon Inc.\nA certain amount of the compound of Example 6 was weighed and prepared with DMSO to obtain a 30 mM stock solution. A certain volume of the stock solution was diluted into a solution I at a concentration of 1600 μM with DMSO; and a certain volume of the solution I at 1600 μM was diluted with 50% methanol to obtain a working solution II at a concentration of 16 μM. A 30 mM stock solution, a 1600 μM solution I′, and a 16 μM working solution II′ of CC-92480 were prepared as described above.\n5 μL of the working solutions at 16 μM of the compound of Example 6 and the control example CC-92480 were each added to 75 μL of plasma to make the final concentration of the compounds of 1 μM. The samples were incubated under a 37° C. water bath for 0 min, 15 min, 30 min, 60 min, 90 min, 120 min, and 180 min. […] The supernatant was analyzed by LC-MS with a sample injection volume of 2 μL."}, "[2]": {"assay": "Effect on body weight of tumor-bearing CB-17 SCID mice", "type": "in vivo", "settings": "1 mg/kg qd, 11 days", "protocol": "as §1\nThe effect of the compound of Example 6 and the control example CC-92480 on the body weight of CB-17 SCID mice is shown in FIG. 2."}},
  "data": [
    {"smiles": "N#Cc1ccc(N2CCC(Sc3ccc(COc4cccc5c4CN([C@H]4CCC(=O)NC4=O)C5=O)cn3)CC2)c(F)c1", "note": "[Compound 6, (S)-4-(4-((5-(((2-(2,6-dioxopiperidin-3-yl)-1-oxoisoindolin-4-yl)oxy)methyl)pyridin-2-yl)thio)piperidin-1-yl)-3-fluorobenzonitrile]", "values": [
      {"measurement": "tumor inhibition rate (TGI)", "setting": "NCI-H929 xenograft tumor; 1 mg/kg qd, 11 days after administration", "value": "> 100", "unit": "%"},
      {"measurement": "Mean tumor volume D0", "setting": "NCI-H929 xenograft tumor; 1 mg/kg qd, baseline at day of grouping (D0), n=7", "value": 155.4, "unit": "mm^3"},
      {"measurement": "Number of remaining animals/group", "setting": "NCI-H929 xenograft tumor; 1 mg/kg qd/11d po", "value": "7/7"},
      {"measurement": "% tumor regression D11", "setting": "NCI-H929 xenograft tumor; 1 mg/kg qd/11d po (i.g.), D11", "value": 88, "unit": "%"},
      {"measurement": "Mean tumor volume D11", "setting": "NCI-H929 xenograft tumor; 1 mg/kg qd/11d po (i.g.), D11, n=7", "value": 18.6, "unit": "mm^3"},
      {"measurement": "half-life at 1 µM", "setting": "[1]", "value": 806, "unit": "min"},
      {"measurement": "influence on the body weight of mice", "setting": "[2]", "value": "no influence on the body weight of mice"}
    ]}
  ]
}
